Results published in patent US20250248998A1, “LRRK2 Inhibitors” (Brenig Therapeutics, Inc., priority 2022, published 2025).

What was measured:
LRRK2 WT [1] = biological target: T1, LRRK2 WT (Homo sapiens, UniProt Q5S007); assay: Enzymatic activity inhibition against LRRK2 WT (ADP-Glo kinase assay, LRRKtide substrate); type: biochemical; set-up: purchased SignalChem Biotech, Inc. L10-11G-10; details: recombinant LRRK2 WT 36 nM, ATP, 1 h at rt, average Ki
Procedure: Example B. Primary Assays Used to Determine Potency of the LRRK2 Inhibition
Assay for Determining Enzymatic Activity Inhibition Against LRRK2 WT.
Compound activity was determined using recombinant LRRK2 WT protein (SignalChem Biotech, Inc., Cat #L10-11G-10) and LRRKtide substrate (SignalChem Biotech, Inc., Cat #L10-58) in an in vitro enzymatic reaction. The enzymatic reaction was carried out in assay buffer (40 mM TRIS-HCl pH 7.4, 20 mM MgCl2, 0.05 mM DTT, 0.1 mg/mL BSA). The compounds were dispensed into a 384 well Diamond Well Plate (Axigen, Cat #P-384-120SQ-C-S) using the Biomek FX liquid handling system at 80× solutions of compounds in DMSO. The 2× Protein-Substrate mix (final concentration 36 nM of LRRK2 WT and 0.8 μg/μL of LRRKtide) was prepared in the 1× Assay buffer and 4 μL of mixture per well was added into the 384-well white Reaction plate with NBS (Corning, Cat #CLS4513). The 4 μL of LRRKtide substrate w/o LRRK2 WT in the 1× buffer was used for a negative control. Plates were centrifuged for 1 min at 200 g. Next the compounds were added to Reaction plate using Biomek station via following steps: 1 μL of 80× compounds (in DMSO) were mixed thoroughly with 39 μL of 2×10 μM ATP in Assay Buffer, then 4 μL of this mixture was added to Reaction plate with 4 μL of Protein-Substrate mix. Plates were centrifuged for 1 min at 200 g and incubated for 1 hour at rt. Then, 4 μL per well of ADP-Glo reagent (Promega, ADP-Glo™ Kinase Assay, Cat #V9102) was added. Plates were incubated for 30 minutes at rt. Then, 8 μL per well of Kinase detection reagent (Promega, ADP-Glo™ Kinase Assay, Cat #V9102) was added and the luminescence signal was measured with a microplate reader. The % inhibition was then used to calculate the Ki values. The average Ki values are shown in Table B, wherein “A” corresponds to Ki<10.0 nM, “B” corresponds to 10.0 nM K Ki<20.0 nM, “C” 20.0 nM K Ki<50.0 nM, “D” corresponds to 50.0 nM K Ki<100.0 nM and “E” corresponds to Ki>100.0 nM.
Target sequence in this assay (Q5S007 970-2527 limits assumed): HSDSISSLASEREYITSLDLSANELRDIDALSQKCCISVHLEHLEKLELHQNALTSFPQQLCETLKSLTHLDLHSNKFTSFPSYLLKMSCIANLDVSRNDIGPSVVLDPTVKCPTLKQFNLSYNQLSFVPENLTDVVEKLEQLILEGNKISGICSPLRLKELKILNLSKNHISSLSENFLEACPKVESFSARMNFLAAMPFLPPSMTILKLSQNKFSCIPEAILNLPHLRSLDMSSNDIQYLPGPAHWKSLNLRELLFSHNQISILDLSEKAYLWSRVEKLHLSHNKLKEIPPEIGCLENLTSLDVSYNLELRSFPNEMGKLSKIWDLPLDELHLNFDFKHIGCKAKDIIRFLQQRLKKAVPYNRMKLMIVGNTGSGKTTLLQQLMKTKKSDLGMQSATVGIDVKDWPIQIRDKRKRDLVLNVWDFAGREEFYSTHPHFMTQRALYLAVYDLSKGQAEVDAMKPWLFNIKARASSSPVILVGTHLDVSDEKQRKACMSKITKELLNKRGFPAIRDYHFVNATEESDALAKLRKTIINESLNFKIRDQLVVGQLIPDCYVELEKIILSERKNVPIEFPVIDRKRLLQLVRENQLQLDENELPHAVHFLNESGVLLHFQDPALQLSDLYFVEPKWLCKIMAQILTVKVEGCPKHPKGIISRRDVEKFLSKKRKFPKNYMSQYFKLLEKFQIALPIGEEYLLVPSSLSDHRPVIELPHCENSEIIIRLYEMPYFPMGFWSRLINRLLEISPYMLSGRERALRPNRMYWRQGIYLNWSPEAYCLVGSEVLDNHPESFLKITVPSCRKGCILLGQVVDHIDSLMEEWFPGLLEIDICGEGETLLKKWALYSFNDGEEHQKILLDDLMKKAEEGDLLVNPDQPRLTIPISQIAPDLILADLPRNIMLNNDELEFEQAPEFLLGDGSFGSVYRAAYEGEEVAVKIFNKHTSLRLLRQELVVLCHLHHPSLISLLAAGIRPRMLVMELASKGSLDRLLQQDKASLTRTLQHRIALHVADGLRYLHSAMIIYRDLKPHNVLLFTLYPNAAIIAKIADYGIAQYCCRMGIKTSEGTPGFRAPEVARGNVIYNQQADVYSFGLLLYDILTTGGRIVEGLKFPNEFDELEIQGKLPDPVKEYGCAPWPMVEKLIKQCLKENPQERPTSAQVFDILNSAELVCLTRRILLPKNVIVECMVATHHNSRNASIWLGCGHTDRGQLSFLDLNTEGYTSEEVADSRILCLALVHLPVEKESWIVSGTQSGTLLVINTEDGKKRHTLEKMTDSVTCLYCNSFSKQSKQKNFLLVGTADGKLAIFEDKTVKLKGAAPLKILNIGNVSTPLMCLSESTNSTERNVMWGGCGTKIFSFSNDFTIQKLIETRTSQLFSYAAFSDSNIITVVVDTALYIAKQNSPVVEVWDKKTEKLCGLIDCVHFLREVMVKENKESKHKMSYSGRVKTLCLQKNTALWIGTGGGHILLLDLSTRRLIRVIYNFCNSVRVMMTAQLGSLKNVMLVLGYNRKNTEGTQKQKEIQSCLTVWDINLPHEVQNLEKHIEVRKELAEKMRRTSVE

LRRK2[G2019S] [2] = biological target: T2, LRRK2[G2019S] (Homo sapiens, UniProt Q5S007, G2019S); assay: Enzymatic activity inhibition against LRRK2[G2019S] (ADP-Glo kinase assay, LRRKtide substrate); type: biochemical; set-up: purchased SignalChem Biotech, Inc. L10-12GG-10; details: recombinant LRRK2[G2019S] 36 nM, ATP, 1 h at rt, average Ki
Procedure: Example A. Primary Assays Used to Determine Potency of the LRRK2 Inhibition
Assay for Determining Enzymatic Activity Inhibition Against LRRK2[G2019S].
Compound activity was determined using recombinant LRRK2[G2019S] protein (SignalChem Biotech, Inc., Cat #L10-12GG-10) and LRRKtide substrate (SignalChem Biotech, Inc., Cat #L10-58) in an in vitro enzymatic reaction. The enzymatic reaction was carried out in assay buffer (40 mM TRIS-HCl pH 7.4, 20 mM MgCl2, 0.05 mM DTT, 0.1 mg/mL BSA). The compounds were dispensed into a 384 well Diamond Well Plate (Axigen, Cat #P-384-120SQ-C-S) using the Biomek FX liquid handling system at the 80× solutions of compounds in DMSO. The 2× Protein-Substrate mix (final concentration 36 nM of LRRK2[G2019S] and 0.8 μg/μL of LRRKtide) was prepared in 1× Assay buffer and 4 μL of mixture per well was added into the 384-well white Reaction plate with NBS (Corning, Cat #CLS4513). The 4 μL of LRRKtide substrate w/o LRRK2[G2019S] in the 1× buffer was used for a negative control. Plates were centrifuged for 1 min at 200 g. Next the compounds were added to the reaction plate using Biomek station via following steps: 1 μL of 80× compounds (in DMSO) were mixed thoroughly with 39 μL of 2×10 μM ATP in Assay Buffer, then 4 μL of this mixture was added to Reaction plate with 4 μL of Protein-Substrate mix. Plates were centrifuged for 1 min at 200 g and incubated for 1 h at rt. Then, 4 μL per well of ADP-Glo reagent (Promega, ADP-Glo™ Kinase Assay, Cat #V9102) was added. Plates were incubated for 30 min at rt. Then, 8 μL per well of Kinase detection reagent (Promega, ADP-Glo™ Kinase Assay, Cat #V9102) was added and the luminescence signal was measured with a microplate reader. The luminescence signal was detected with CLARIOstar Plus (BMG LABTECH) microplate reader. The % inhibition was then used to calculate the Ki values. The average Ki values are shown in Table A, wherein “A” corresponds to Ki<5.0 nM, “B” corresponds to 5.0 nM≤Ki<10.0 nM, “C” 10.0 nM≤Ki<50.0 nM, “D” corresponds to 50.0 nM≤Ki<100.0 nM and “E” corresponds to Ki>100.0 nM.
Target sequence in this assay (Q5S007 970-2527 G2019S limits assumed): as the sequence (Q5S007 970-2527 limits assumed) above, with G1050S counted along it

LRRK2 WT [3] = biological target: T1, LRRK2 WT; assay: Cell-based NanoBRET target engagement assay in HEK293 cells transfected with LRRK2 WT-NanoLuc fusion vector; set-up: expressed in transfected cells; host or cells: HEK293 (ATCC); details: compound treatment 1 h
Procedure: (§1) Example C. Cell-Based NanoBRET Target Engagement Assay in 11EK293 Cells Transiently Transfected with LRRK2 WT- or LRRK2 (G2019S)-Nano Luc Fusion Vector
(§2) H1EK293 (ATCC) cells were transfected with […] LRRK2 WT or LRRK2 (G2019S) and 9 μg transfection carrier DNA. The transfected cells were treated with the compounds (starting at 1 μM, 10-dose with 3-fold dilution) and reference compounds CEP-701 or Staurosporine (starting at 1 μM, 10-dose with 3-fold dilution); compound treatment time: 1 h. LRRK2 WT and LRRK2 (G2019S) target engagement was measured by NanoBRET assay. Curve fits were performed only when % NanoBret signal at the highest concentration of compounds was less than […]. Assay format: 384-well format, 4000 cells/well. The IC50 values are shown in Table C, wherein “A” corresponds to IC50≤50.0 nM, “B” corresponds to 50.0 nM≤IC50<100.0 nM, “C” corresponds to 100.0 nM≤IC50.
Target sequence in this assay (Q5S007 whole entry): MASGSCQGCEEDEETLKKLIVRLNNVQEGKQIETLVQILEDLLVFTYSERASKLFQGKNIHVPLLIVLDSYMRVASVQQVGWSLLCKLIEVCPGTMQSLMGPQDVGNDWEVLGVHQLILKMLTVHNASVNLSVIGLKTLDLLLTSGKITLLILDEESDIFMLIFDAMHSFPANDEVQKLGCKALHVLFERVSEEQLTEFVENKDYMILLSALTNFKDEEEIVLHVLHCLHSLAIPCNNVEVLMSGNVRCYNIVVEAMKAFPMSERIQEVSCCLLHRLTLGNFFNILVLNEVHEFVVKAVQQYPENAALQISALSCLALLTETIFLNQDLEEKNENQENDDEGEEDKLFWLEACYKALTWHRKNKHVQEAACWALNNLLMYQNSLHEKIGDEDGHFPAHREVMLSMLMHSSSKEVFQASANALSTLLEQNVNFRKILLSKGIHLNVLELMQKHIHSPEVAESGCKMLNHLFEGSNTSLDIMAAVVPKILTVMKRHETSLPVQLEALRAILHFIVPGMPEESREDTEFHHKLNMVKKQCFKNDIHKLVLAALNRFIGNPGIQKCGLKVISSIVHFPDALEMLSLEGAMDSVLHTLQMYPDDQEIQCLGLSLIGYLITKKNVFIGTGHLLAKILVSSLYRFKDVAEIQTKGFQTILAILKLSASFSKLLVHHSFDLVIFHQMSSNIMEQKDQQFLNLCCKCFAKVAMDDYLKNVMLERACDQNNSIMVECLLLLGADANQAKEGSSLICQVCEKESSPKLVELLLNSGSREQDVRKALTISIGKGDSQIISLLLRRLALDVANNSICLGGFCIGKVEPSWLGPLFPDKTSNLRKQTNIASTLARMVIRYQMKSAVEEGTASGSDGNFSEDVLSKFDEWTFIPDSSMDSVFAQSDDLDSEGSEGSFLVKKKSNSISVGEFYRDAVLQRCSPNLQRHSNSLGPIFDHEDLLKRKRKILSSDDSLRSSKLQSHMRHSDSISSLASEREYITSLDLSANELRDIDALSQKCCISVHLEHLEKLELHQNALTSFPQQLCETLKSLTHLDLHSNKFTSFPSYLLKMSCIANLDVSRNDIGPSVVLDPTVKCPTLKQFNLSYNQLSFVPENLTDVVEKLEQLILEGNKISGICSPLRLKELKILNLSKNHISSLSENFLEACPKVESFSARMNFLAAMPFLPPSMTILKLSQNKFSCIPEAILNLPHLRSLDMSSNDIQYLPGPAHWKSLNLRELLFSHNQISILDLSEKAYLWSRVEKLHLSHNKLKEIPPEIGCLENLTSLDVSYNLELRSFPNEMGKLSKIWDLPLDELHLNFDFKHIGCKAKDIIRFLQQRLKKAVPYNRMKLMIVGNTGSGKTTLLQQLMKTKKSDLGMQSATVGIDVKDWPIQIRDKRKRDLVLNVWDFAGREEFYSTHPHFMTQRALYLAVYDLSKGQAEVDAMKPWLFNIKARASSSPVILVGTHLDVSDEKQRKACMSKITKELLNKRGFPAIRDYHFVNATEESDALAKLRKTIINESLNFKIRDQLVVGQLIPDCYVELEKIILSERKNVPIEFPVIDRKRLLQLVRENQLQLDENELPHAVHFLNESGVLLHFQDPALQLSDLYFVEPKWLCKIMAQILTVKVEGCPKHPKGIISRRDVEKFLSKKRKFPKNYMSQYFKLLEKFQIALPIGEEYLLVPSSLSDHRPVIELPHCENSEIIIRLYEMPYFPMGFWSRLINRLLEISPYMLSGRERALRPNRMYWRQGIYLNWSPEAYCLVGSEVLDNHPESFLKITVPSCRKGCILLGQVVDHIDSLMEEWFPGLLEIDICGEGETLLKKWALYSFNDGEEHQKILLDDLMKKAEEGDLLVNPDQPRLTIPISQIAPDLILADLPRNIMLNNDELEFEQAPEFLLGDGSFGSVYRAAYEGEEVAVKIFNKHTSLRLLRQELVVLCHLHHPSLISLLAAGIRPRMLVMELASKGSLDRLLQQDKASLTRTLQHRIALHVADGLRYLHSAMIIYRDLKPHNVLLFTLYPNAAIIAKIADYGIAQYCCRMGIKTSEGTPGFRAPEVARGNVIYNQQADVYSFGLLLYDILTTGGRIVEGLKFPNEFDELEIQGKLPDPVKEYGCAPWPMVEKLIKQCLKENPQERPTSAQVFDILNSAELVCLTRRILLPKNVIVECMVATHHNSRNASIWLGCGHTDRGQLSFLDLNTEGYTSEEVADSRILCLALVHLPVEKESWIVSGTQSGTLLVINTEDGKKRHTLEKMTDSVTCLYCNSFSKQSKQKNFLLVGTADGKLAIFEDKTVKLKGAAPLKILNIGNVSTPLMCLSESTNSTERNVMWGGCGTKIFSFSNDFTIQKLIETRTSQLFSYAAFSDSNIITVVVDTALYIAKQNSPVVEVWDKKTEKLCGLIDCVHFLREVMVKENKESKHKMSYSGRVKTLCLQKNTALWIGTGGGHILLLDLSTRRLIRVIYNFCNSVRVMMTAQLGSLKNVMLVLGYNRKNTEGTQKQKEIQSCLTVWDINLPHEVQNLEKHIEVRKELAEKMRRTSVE

LRRK2[G2019S] [4] = biological target: T2, LRRK2[G2019S]; assay: Cell-based NanoBRET target engagement assay in HEK293 cells transfected with LRRK2 (G2019S)-NanoLuc fusion vector; set-up: expressed in transfected cells; host or cells: HEK293 (ATCC); details: compound treatment 1 h
Procedure: as §1, §2
Target sequence in this assay (Q5S007 whole entry G2019S): as the sequence (Q5S007 whole entry) above, with G2019S counted along it

Ki (LRRK2 WT [1])	Ki (LRRK2[G2019S] [2])	IC50 (LRRK2 WT [3])	IC50 (LRRK2[G2019S] [4])	SMILES
50 to 100 nM	> 100 nM	–	–	Cn1nc(-c2n[nH]c3ccc4c(c23)CCCO4)cc(N2CCOCC2)c1=O [Compound 29, 2-methyl-4-morpholino-6-(3,7,8,9-tetrahydropyrano[3,2-e]indazol-1-yl)pyridazin-3-one]
≤ 10 nM	10 to 50 nM	–	–	Cn1nc(-c2n[nH]c3ccc(-n4cccc4C#N)cc23)cc(N2CCOCC2)c1=O [Compound 45, 1-[3-(1-methyl-5-morpholino-6-oxo-pyridazin-3-yl)-1H-indazol-5-yl]pyrrole-2-carbonitrile]
> 100 nM	> 100 nM	–	–	Cn1nc(-c2n[nH]c3ccc(OC(F)(F)F)cc23)cc(N2CCOCC2)c1=O [Compound 22, 2-methyl-4-morpholino-6-[5-(trifluoromethoxy)-1H-indazol-3-yl]pyridazin-3-one]
≤ 10 nM	50 to 100 nM	–	–	Cn1nc(-n2ncc3ccc(C4(C#N)CC4)cc32)cc(N2CCOCC2)c1=O [Compound 41, 1-[1-(1-methyl-5-morpholino-6-oxo-pyridazin-3-yl)indazol-6-yl]cyclopropanecarbonitrile]
> 100 nM	> 100 nM	–	–	O=S1(=O)CCCC1c1ccc2cnn(-c3cnnc(N4CCCC4)c3)c2c1 (stereo not shown) [Compound 34, 2-[1-(6-pyrrolidin-1-ylpyridazin-4-yl)indazol-6-yl]thiolane 1,1-dioxide]
50 to 100 nM	> 100 nM	–	–	Cn1nc(-c2n[nH]c3cc4c(cc23)OCCC4)cc(N2CCOCC2)c1=O [Compound 31, 2-methyl-4-morpholino-6-(1,6,7,8-tetrahydropyrano[2,3-f]indazol-3-yl)pyridazin-3-one]
50 to 100 nM	> 100 nM	–	–	N#CC1(c2ccc3cnn(-c4cnnc(N5CCCC5)c4)c3c2)CC1 [Compound 36, 1-[1-(6-pyrrolidin-1-ylpyridazin-4-yl)indazol-6-yl]cyclopropanecarbonitrile]
10 to 20 nM	5 to 10 nM	–	–	CC(C)Oc1ccc2[nH]nc(-c3cnnc(N4CC(O)C4)c3)c2c1 [Compound 1, 1-[5-(5-isopropoxy-1H-indazol-3-yl)pyridazin-3-yl]azetidin-3-ol]
20 to 50 nM	50 to 100 nM	–	–	N#CC1(c2ccc3cnn(-c4cnnc(N5CCCC5)c4)c3c2)CCCC1 [Compound 39, 1-[1-(6-pyrrolidin-1-ylpyridazin-4-yl)indazol-6-yl]cyclopentanecarbonitrile]
> 100 nM	> 100 nM	–	–	Cc1c(OC(C)C)ccc2[nH]nc(-c3cc(N4CCOCC4)c(=O)n(C)n3)c12 [Compound 24, 6-(5-isopropoxy-4-methyl-1H-indazol-3-yl)-2-methyl-4-morpholino-pyridazin-3-one]
> 100 nM	> 100 nM	–	–	N#CC1(c2ccc3cnn(-c4cnnc(N5CCCC5)c4)c3c2)CCCCC1 [Compound 37, 1-[1-(6-pyrrolidin-1-ylpyridazin-4-yl)indazol-6-yl]cyclohexanecarbonitrile]
20 to 50 nM	50 to 100 nM	–	–	CC(C)(C#N)c1ccc2cnn(-c3cnnc(N4CCCC4)c3)c2c1 [Compound 35, 2-methyl-2-[1-(6-pyrrolidin-1-ylpyridazin-4-yl)indazol-6-yl]propanenitrile]
> 100 nM	> 100 nM	–	–	CC(C)Oc1cccc2[nH]nc(-c3cc(N4CCOCC4)c(=O)n(C)n3)c12 [Compound 15, 6-(4-isopropoxy-1H-indazol-3-yl)-2-methyl-4-morpholino-pyridazin-3-one]
≤ 10 nM	5 to 10 nM	–	–	CC(C)Oc1ccc2[nH]nc(-c3cnnc(N4CCOCC4)n3)c2c1 [Compound 13, 4-[5-(5-isopropoxy-1H-indazol-3-yl)-1,2,4-triazin-3-yl]morpholine]
–	–	≤ 50 nM	≤ 50 nM	CN1CCN(c2cc(-c3n[nH]c4ccc(OC5(C)CC5)cc34)nn(C)c2=O)CCC1C(F)(F)F (stereo not shown) [Compound 65, 2-methyl-6-[5-(1-methylcyclopropoxy)-1H-indazol-3-yl]-4-[4-methyl-5-(trifluoromethyl)-1,4-diazepan-1-yl]pyridazin-3-one]
–	–	≤ 50 nM	≤ 50 nM	CC1CCN(c2cc(-c3n[nH]c4ccc(OC5(C)CC5)cc34)nn(C)c2=O)CC(C)O1 (stereo not shown) [Compound 70, 4-(2,7-dimethyl-1,4-oxazepan-4-yl)-2-methyl-6-[5-(1-methylcyclopropoxy)-1H-indazol-3-yl]pyridazin-3-one]
–	–	≤ 50 nM	≤ 50 nM	Cn1nc(-c2n[nH]c3ccc(OC4(C)CC4)cc23)cc(N2CCCCC(C)(O)C2)c1=O (stereo not shown) [Compound 81, 4-(3-hydroxy-3-methyl-azepan-1-yl)-2-methyl-6-[5-(1-methylcyclopropoxy)-1H-indazol-3-yl]pyridazin-3-one]
–	–	≤ 50 nM	≤ 50 nM	CC1(Oc2ccc3[nH]nc(-c4cc(N5CC(F)C6(CC6)C5)c(=O)n(C5CC5)n4)c3c2)CC1 (stereo not shown) [Compound 59, 2-cyclopropyl-4-(7-fluoro-5-azaspiro[2.4]heptan-5-yl)-6-[5-(1-methylcyclopropoxy)-1H-indazol-3-yl]pyridazin-3-one]
–	–	≤ 50 nM	≤ 50 nM	Cn1nc(-c2n[nH]c3ccc(OC4(C)CC4)cc23)cc(N2CCC(C(C)(C)O)C2)c1=O (stereo not shown) [Compound 85, 4-[3-(1-hydroxy-1-methyl-ethyl)pyrrolidin-1-yl]-2-methyl-6-[5-(1-methylcyclopropoxy)-1H-indazol-3-yl]pyridazin-3-one]
–	–	≤ 50 nM	≤ 50 nM	CN1CCCN(c2cc(-c3n[nH]c4ccc(OC5(C)CC5)cc34)nn(C)c2=O)CC1 [Compound 63, 2-methyl-6-[5-(1-methylcyclopropoxy)-1H-indazol-3-yl]-4-(4-methyl-1,4-diazepan-1-yl)pyridazin-3-one]
